We go through 8 compounds from ChEMBL document CHEMBL3400087, “Modulating Acinetobacter baumannii biofilm development with molecules containing 3,4,5-trimethoxy-N,N',N'-trimethylbenzohydrazide moiety” (Bioorg Med Chem Lett, 2015).

The source made the active and inactive calls. The rule behind the calls is not given here.

Data set [1] deals with Acinetobacter baumannii. Nature of the data set: Inhibition of Acinetobacter baumannii AB5711 biofilm formation at 100 uM after 24 hrs by crystal violet staining-based static MBEC biofilm assay. The format is functional, organism-based.
The subject of data set [2] is Acinetobacter baumannii. Nature of the data set: Inhibition of Acinetobacter baumannii AB5711 biofilm formation at 200 uM after 24 hrs by crystal violet staining-based static MBEC biofilm assay. The data set is classed as functional, organism-based.
For data set [3], the system named is Acinetobacter baumannii. Nature of the data set: Inhibition of Acinetobacter baumannii AB5711 biofilm formation assessed as inhibition of cell adherence to surface at 100 uM by crystal violet staining-based modified microtiter biofilm assay. The format is functional, organism-based.
Data set [4] concerns Acinetobacter baumannii. Nature of the data set: Inhibition of Acinetobacter baumannii AB5711 biofilm formation in 14-French silicone urethral catheter at 200 uM measured after overnight incubation by crystal violet staining-based spectrophotometry. The data set is classed as functional, organism-based.
The test system of the next data set is RAW264.7. Nature of the data set: Cytotoxicity against mouse RAW264.7 cells assessed as reduction in cell viability at >200 uM after 24 hrs by trypan blue-staining based microscopic analysis. The settings on record: raw264.7, 24 h.

On to `COc1cc(C(=O)NNC(=O)c2cccc(Cl)c2)cc(OC)c1OC`, for which the inhibition result with Acinetobacter baumannii [1] is “inactive”. Besides, the inhibition result in the data set with Acinetobacter baumannii [2], in the data set with Acinetobacter baumannii [3] and with Acinetobacter baumannii [4] was “Active” throughout. Besides, the Activity entry with RAW264.7 is “Toxic”.
`COc1cc(C(=O)N2N=C(C3CC3)CC2(O)C(F)(F)F)cc(OC)c1OC` (stereo not given): the inhibition result in the data set with Acinetobacter baumannii [1] is “inactive”. Besides, the inhibition entry in the data set with Acinetobacter baumannii [2], in the data set on Acinetobacter baumannii [3] and in the data set on Acinetobacter baumannii [4] was “Active” each time. Besides, in the data set on RAW264.7, the Activity result is recorded as “Toxic”.
As to `CCNC(=S)NNC(=O)c1cc(OC)c(OC)c(OC)c1`, the inhibition entry in the data set on Acinetobacter baumannii [1] was “inactive”. For the same compound, the inhibition result in the data set on Acinetobacter baumannii [2], with Acinetobacter baumannii [3] and in the data set on Acinetobacter baumannii [4] was “Active” in each case. Also, in the data set with RAW264.7, the Activity result was “Toxic”.
For the compound `COc1cc(C(=O)NNC(=S)NC(C)(C)C)cc(OC)c1OC`, in the data set on Acinetobacter baumannii [1], the inhibition entry is “inactive”. The inhibition result in the data set on Acinetobacter baumannii [2], in the data set on Acinetobacter baumannii [3] and in the data set with Acinetobacter baumannii [4] was “Active” each time. Besides, the Activity entry in the data set with RAW264.7 was “Toxic”.
`COc1cc(C(=O)NN2c3ccccc3C(C)(C)C(C)(C)c3ccccc32)cc(OC)c1OC`: in the data set on Acinetobacter baumannii [1], the inhibition entry is “inactive”. In addition, the inhibition entry in the data set with Acinetobacter baumannii [2], with Acinetobacter baumannii [3] and in the data set on Acinetobacter baumannii [4] was “Active” each time. Moreover, the Activity entry in the data set on RAW264.7 is listed as “Toxic”.
Take `COc1ccccc1C(=O)NNC(=O)c1cc(OC)c(OC)c(OC)c1`: the inhibition entry in the data set with Acinetobacter baumannii [1] and in the data set on Acinetobacter baumannii [4] was “inactive” throughout. Besides, the inhibition entry with Acinetobacter baumannii [2] and in the data set with Acinetobacter baumannii [3] was “Active” each time. Also, the Activity entry in the data set on RAW264.7 is “Toxic”.
`NNC(=O)c1cc(O)c(O)c(O)c1`: in the data set with Acinetobacter baumannii [1], the inhibition entry was “inactive”. In addition, the inhibition result in the data set on Acinetobacter baumannii [2], in the data set with Acinetobacter baumannii [3] and in the data set with Acinetobacter baumannii [4] was “Active” throughout. Besides, the Activity result in the data set on RAW264.7 was “Toxic”.
On to `COc1cc(C(=O)NNC(=O)c2ccc(S(=O)(=O)C3CCC(C)CC3)cc2)cc(OC)c1OC` (stereo not given), for which the inhibition entry in the data set with Acinetobacter baumannii [1] and in the data set with Acinetobacter baumannii [4] was “inactive” throughout. Besides, the inhibition result in the data set on Acinetobacter baumannii [2] and in the data set with Acinetobacter baumannii [3] was “Active” in each case. In the data set with RAW264.7, the Activity result is reported as “Toxic”.
